Columns and labels:
bedstraw = assay: Test B pre/postemergence bedstraw; format: in vivo, Galium aparine
How it was run: (§1)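 Response is a visual 0-to-10 score relative to untreated plants, where 0 means no effect and 10 means complete control, taken twelve to sixteen days after application. Treatments went onto soil at planting and onto foliage of 1- to 4-leaf plants, using a surfactant-containing non-phytotoxic solvent.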

blackgrass = assay: Test B pre/postemergence blackgrass; format: in vivo, Alopecurus myosuroides
How it was run: as §1

surinam grass = assay: Test B pre/postemergence surinam grass; format: in vivo, Brachiaria decumbens
How it was run: as §1

cocklebur = assay: Test B pre/postemergence cocklebur; format: in vivo, Xanthium strumarium
How it was run: as §1

corn = assay: Test B pre/postemergence corn; format: in vivo, Zea mays
How it was run: as §1

crabgrass = assay: Test B pre/postemergence crabgrass; format: in vivo, Digitaria sanguinalis
How it was run: as §1

giant foxtail = assay: Test B pre/postemergence giant foxtail; format: in vivo, Setaria faberii
How it was run: as §1

morningglory = assay: Test B pre/postemergence morningglory; format: in vivo, Ipomoea hederacea
How it was run: as §1

[1] = Postemergence, Rate 125 g/ha, scale of 0 to 10 where 0 is no effect and 10 is complete control
[2] = Preemergence, Rate 62 g/ha, scale of 0 to 10 where 0 is no effect and 10 is complete control
[3] = Preemergence, Rate 125 g/ha, 0 is no effect, 10 is complete control
[4] = Preemergence, Rate 250 g/ha, scale 0 to 10, 0 is no effect, 10 is complete control
[5] = Preemergence, Rate 500 g/ha, scale 0 to 10 (0 no effect, 10 complete control)
[6] = Rate 62 g/ha, Postemergence, scale of 0 to 10 where 0 is no effect and 10 is complete control
[7] = Rate 250 g/ha, Postemergence, scale 0 to 10, 0 is no effect, 10 is complete control
[8] = Rate 500 g/ha, Postemergence, scale 0 to 10
[9] = Rate 1000 g/ha, Preemergence, scale 0 to 10 (0 no effect, 10 complete control)
[10] = Rate 2000 g/ha, Preemergence, scale 0 to 10
[11] = Postemergence, Rate 1000 g/ha, scale 0 to 10 (0 no effect, 10 complete control)
[12] = Rate 2000 g/ha, Postemergence, scale 0 to 10

CC(C)N(C(=O)n1oc(=O)n(N(C)c2ccccc2)c1=O)c1ccc(F)cc1 [Compound 177]
10: Bedstraw plant response rating (bedstraw; [5]) | Plant response rating, Bedstraw (bedstraw; [9]) | Bedstraw plant response rating (bedstraw; [10]) | Giant foxtail plant response rating (giant foxtail; [4]) | Giant foxtail plant response rating (giant foxtail; [5]) | Plant response rating, Giant foxtail (giant foxtail; [9]) | Giant foxtail plant response rating (giant foxtail; [10])
9: Bedstraw plant response rating (bedstraw; [4]) | Blackgrass plant response rating (blackgrass; [10]) | B. signalgrass plant response rating (surinam grass; [10]) | Crabgrass plant response rating (crabgrass; [4]) | Crabgrass plant response rating (crabgrass; [5]) | Crabgrass plant response rating (crabgrass; [10])
0: Bedstraw plant response rating (bedstraw; [1]) | Bedstraw plant response rating (bedstraw; [2]) | Bedstraw plant response rating (0 to 10 scale) (bedstraw; [3]) | Bedstraw plant response rating (bedstraw; [6]) | Blackgrass plant response rating (blackgrass; [1]) | Blackgrass plant response rating (blackgrass; [2]) | Blackgrass plant response rating (0 to 10 scale) (blackgrass; [3]) | Blackgrass plant response rating (blackgrass; [6]) | Plant response rating, Blackgrass (blackgrass; [7]) | B. signalgrass plant response rating (surinam grass; [1]) | B. signalgrass plant response rating (surinam grass; [11]) | B. signalgrass plant response rating (surinam grass; [2]) | B. signalgrass plant response rating (0 to 10 scale) (surinam grass; [3]) | B. signalgrass plant response rating (surinam grass; [4]) | B. signalgrass plant response rating (surinam grass; [5]) | B. signalgrass plant response rating (surinam grass; [6]) | Plant response rating, B. signalgrass (surinam grass; [7]) | B. signalgrass plant response rating (surinam grass; Rate 500 g/ha, Postemergence, scale 0 to 10, 0 no effect, 10 complete control) | B. signalgrass plant response rating (surinam grass; [12]) | Cocklebur plant response rating (cocklebur; [1]) | Cocklebur plant response rating (cocklebur; [11]) | Cocklebur plant response rating (cocklebur; [2]) | Cocklebur plant response rating (0 to 10 scale) (cocklebur; [3]) | Cocklebur plant response rating (cocklebur; [4]) | Cocklebur plant response rating (cocklebur; [5]) | Cocklebur plant response rating (cocklebur; [6]) | Plant response rating, Cocklebur (cocklebur; [7]) | Cocklebur plant response rating (cocklebur; [12]) | Corn plant response rating (corn; [1]) | Corn plant response rating (corn; [11]) | Corn plant response rating (corn; [2]) | Corn plant response rating (0 to 10 scale) (corn; [3]) | Corn plant response rating (corn; [4]) | Corn plant response rating (corn; [5]) | Corn plant response rating (corn; [6]) | Plant response rating, Corn (corn; [7]) | Corn plant response rating (corn; [8]) | Plant response rating, Corn (corn; [9]) | Corn plant response rating (corn; [12]) | Corn plant response rating (corn; [10]) | Crabgrass plant response rating (crabgrass; [1]) | Crabgrass plant response rating (crabgrass; [11]) | Crabgrass plant response rating (crabgrass; [6]) | Crabgrass plant response rating (crabgrass; [12]) | Giant foxtail plant response rating (giant foxtail; [1]) | Giant foxtail plant response rating (giant foxtail; [11]) | Giant foxtail plant response rating (giant foxtail; [6]) | Plant response rating, Giant foxtail (giant foxtail; [7]) | Giant foxtail plant response rating (giant foxtail; [8]) | Morningglory plant response rating (morningglory; [1]) | Morningglory plant response rating (morningglory; [2]) | Morningglory plant response rating (0 to 10 scale) (morningglory; [3]) | Morningglory plant response rating (morningglory; [4]) | Morningglory plant response rating (morningglory; [5]) | Morningglory plant response rating (morningglory; [6])
1: Crabgrass plant response rating (crabgrass; [2]) | Morningglory plant response rating (morningglory; [11])
6: Bedstraw plant response rating (bedstraw; [8]) | Blackgrass plant response rating (blackgrass; [4]) | Blackgrass plant response rating (blackgrass; [5]) | Blackgrass plant response rating (blackgrass; [12]) | Crabgrass plant response rating (0 to 10 scale) (crabgrass; [3])
7: Plant response rating, Blackgrass (blackgrass; [9])
5: Plant response rating, Bedstraw (bedstraw; [7]) | Plant response rating, B. signalgrass (surinam grass; [9])
3: Blackgrass plant response rating (blackgrass; [11]) | Cocklebur plant response rating (cocklebur; [8]) | Crabgrass plant response rating (crabgrass; [8]) | Giant foxtail plant response rating (giant foxtail; [2]) | Giant foxtail plant response rating (0 to 10 scale) (giant foxtail; [3])
2: Blackgrass plant response rating (blackgrass; [8]) | Cocklebur plant response rating (cocklebur; [10]) | Plant response rating, Crabgrass (crabgrass; [7]) | Giant foxtail plant response rating (giant foxtail; [12])
8: Plant response rating, Crabgrass (crabgrass; [9])

Reference: patent US6737383B1, “Herbicidal oxadiazolidines” (priority 1999, dated 2004)
